Some test systems named below: A549; ACHN; CAKI-1; HCT-116; HCT-15; Hs-578T; IGROV-1; KM12; MCF7; NCI-H522; NCI/ADR-RES; RXF 393; SF-295; SF-539; SK-MEL-28; SN12C; SNB-19; SW-620; TK-10; HOP-92.
Assay in all cases: NCI tumour cell line growth inhibition, 48 h

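How tested: cells in 96-well plates exposed to compound for 48 hours at five concentrations. Here, GI50 denotes the concentration required for 50% inhibition of growth.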 The source made the active and inactive calls. Cut-off read from the data, not from the text of the source: active = GI50 up to about 1.1 µM and inactive = higher.

Eleven compounds from ChEMBL document CHEMBL1201862, “PubChem BioAssay data set” (2004) can be followed below.

For `Nc1nc2c(c(=O)[nH]1)N=C(COP(=O)(O)OP(=O)(O)O)CN2`, the GI50 in the assay on A549 was > 100 µM (inactive); in the assay with ACHN it was > 100 µM (inactive); in the assay on CAKI-1 it was > 100 µM (inactive); with HCT-116 it was > 100 µM (inactive); with HCT-15, greater than 100 µM; in the assay with Hs-578T it was > 100 µM (inactive). The GI50 in the assay on IGROV-1, in the assay with KM12, in the assay with MCF7, in the assay on NCI-H522, in the assay with NCI/ADR-RES and in the assay with RXF 393 was > 100 µM (inactive) in each case. For the same compound, the GI50 with SF-295, with SF-539, with SK-MEL-28, with SN12C, with SNB-19 and with SW-620 was > 100 µM (inactive) throughout. In the assay with TK-10, the GI50 was > 100 µM (inactive).

Turning to `CN1CN(c2ccccc2)C2(CCN(CCCSc3ccccc3NC(=O)/C=C/c3ccccc3)CC2)C1=O`, the GI50 with A549 was 6.93 µM (inactive); in the assay on ACHN it was 2.4 µM (inactive); in the assay with CAKI-1, 9.91 µM (inactive); in the assay with HCT-116 it was 2.5 µM (inactive); with HCT-15, 6.92 µM; in the assay with Hs-578T, 3.41 µM (inactive). Further, the GI50 with IGROV-1 is 2.86 µM (inactive); in the assay with KM12, 4.59 µM (inactive); in the assay with MCF7 it was 13 µM (inactive); in the assay on NCI-H522, 17.3 µM (inactive); in the assay with NCI/ADR-RES it was 3.87 µM (inactive); with RXF 393 it was 7.55 µM (inactive). For the same compound, the GI50 in the assay on SF-295 is 3.3 µM (inactive); with SF-539 it was 2.88 µM (inactive); in the assay with SK-MEL-28, 2.11 µM (inactive); in the assay on SN12C, 3.39 µM (inactive); with SNB-19, 5.27 µM (inactive); in the assay with SW-620 it was 6.25 µM (inactive). For the same compound, the GI50 in the assay on TK-10 was 8.39 µM (inactive).

Regarding `CC12CCC(CC1=O)C2(C)CCC(N)=O` (centres undefined), the GI50 is > 100 µM (inactive) with A549; > 100 µM (inactive) in the assay on ACHN; > 100 µM (inactive) in the assay on CAKI-1; > 100 µM (inactive) in the assay on HCT-116; greater than 100 µM in the assay with HCT-15; > 100 µM (inactive) in the assay with Hs-578T. Besides, the GI50 in the assay on IGROV-1, in the assay with KM12, in the assay with MCF7, in the assay on NCI-H522, with NCI/ADR-RES and in the assay with RXF 393 was > 100 µM (inactive) in each case. The GI50 in the assay on SF-295, with SK-MEL-28, in the assay with SN12C, with SNB-19, in the assay with SW-620 and in the assay with TK-10 was > 100 µM (inactive) in each case.

On to `CC(=O)N(C(C)=O)n1c(Cc2ccc(Cl)cc2)nn(C(C)=O)c1=O`, for which the GI50 was > 100 µM (inactive) with A549; > 100 µM (inactive) with ACHN; greater than 100 µM in the assay with HCT-15; > 100 µM (inactive) in the assay on Hs-578T; > 100 µM (inactive) with IGROV-1; > 100 µM (inactive) in the assay on KM12. Further, the GI50 in the assay on MCF7, with NCI-H522, with NCI/ADR-RES, in the assay with RXF 393, in the assay with SF-295 and with SF-539 was > 100 µM (inactive) in each case. Further, the GI50 in the assay on SK-MEL-28, in the assay on SN12C, in the assay with SNB-19, in the assay with SW-620 and with TK-10 was > 100 µM (inactive) in each case.

For the compound `CCCCCCCCC/C=C1\CCC(CN2CCOCC2)C1=O` (centres undefined), the GI50 in the assay on A549 is 15 µM (inactive); in the assay with ACHN it was 4.92 µM (inactive); in the assay on CAKI-1, 4.6 µM (inactive); in the assay on HCT-116 it was 1.75 µM (inactive); in the assay on HCT-15, 2.47 µM; with HOP-92 it was 3.38 µM (inactive). The GI50 is 1.94 µM (inactive) in the assay on Hs-578T; 4.83 µM (inactive) with IGROV-1; 2.17 µM (inactive) in the assay with KM12; 1.03 µM (active) in the assay on MCF7; 2.64 µM (inactive) in the assay with NCI-H522; 2.31 µM (inactive) in the assay on RXF 393. Moreover, the GI50 in the assay with SF-295 is 7.48 µM (inactive); in the assay with SF-539 it was 1.86 µM (inactive); in the assay with SK-MEL-28, 3.05 µM (inactive); in the assay with SN12C it was 3.78 µM (inactive); with SNB-19 it was 9.04 µM (inactive); with SW-620, 2.28 µM (inactive). The GI50 in the assay on TK-10 is 2.33 µM (inactive).

For the compound `S=C1CCSc2c(ccc3ccccc23)N1`, the GI50 was > 100 µM (inactive) with A549; > 100 µM (inactive) in the assay on ACHN; > 100 µM (inactive) in the assay with CAKI-1; > 100 µM (inactive) in the assay with HCT-116; greater than 100 µM in the assay on HCT-15; 19.1 µM (inactive) in the assay on Hs-578T. The GI50 with IGROV-1 is > 100 µM (inactive); in the assay on KM12, > 100 µM (inactive); in the assay on MCF7, 72.4 µM (inactive); with NCI-H522, 58.5 µM (inactive); with NCI/ADR-RES, > 100 µM (inactive); in the assay on RXF 393, 0.512 µM (active). In addition, the GI50 in the assay with SF-295 was 45.8 µM (inactive); in the assay on SK-MEL-28, > 100 µM (inactive); in the assay on SN12C it was > 100 µM (inactive); in the assay with SNB-19 it was 95.5 µM (inactive); in the assay on TK-10, > 100 µM (inactive).

With `Cn1c2ccccc2c2cc(N3CCCC3)c3c(c21)C(=O)N(c1ccccc1)C3=O`, the GI50 in the assay on A549 is > 100 µM (inactive); in the assay with ACHN, > 100 µM (inactive); with HCT-116 it was > 100 µM (inactive); with HCT-15 it was greater than 100 µM; with Hs-578T, 72.9 µM (inactive); in the assay on IGROV-1, > 100 µM (inactive). For the same compound, the GI50 is > 100 µM (inactive) in the assay with KM12; 24.3 µM (inactive) in the assay with MCF7; > 100 µM (inactive) with NCI-H522; > 100 µM (inactive) in the assay on NCI/ADR-RES; 32.5 µM (inactive) in the assay on RXF 393; > 100 µM (inactive) in the assay with SF-295. The GI50 in the assay with SK-MEL-28, in the assay with SN12C, in the assay on SNB-19, with SW-620 and in the assay on TK-10 was > 100 µM (inactive) in each case.

On to `COC(=O)[C@@H](Cc1ccccc1)NNC(=O)OC(C)(C)C`, for which the GI50 was > 100 µM (inactive) in the assay with A549; > 100 µM (inactive) in the assay on ACHN; > 100 µM (inactive) in the assay on HCT-116; greater than 100 µM in the assay on HCT-15; > 100 µM (inactive) in the assay with Hs-578T; > 100 µM (inactive) in the assay with IGROV-1. Also, the GI50 in the assay with KM12, in the assay on MCF7, in the assay with NCI-H522, with NCI/ADR-RES, in the assay on RXF 393 and with SF-295 was > 100 µM (inactive) each time. Besides, the GI50 with SF-539, in the assay on SK-MEL-28, in the assay with SN12C, in the assay on SW-620 and with TK-10 was > 100 µM (inactive) throughout.

On to `CN(Cc1cnc2nc(N)nc(N)c2n1)c1ccc(C(=O)NCCS(=O)(=O)O)cc1`, for which the GI50 in the assay with A549 is > 100 µM (inactive); in the assay on ACHN it was > 100 µM (inactive); with CAKI-1, > 100 µM (inactive); in the assay with HCT-116, 91.6 µM (inactive); in the assay on HCT-15, greater than 100 µM; with Hs-578T it was > 100 µM (inactive). In addition, the GI50 in the assay with IGROV-1, in the assay with KM12, in the assay with MCF7, in the assay on NCI-H522, in the assay with NCI/ADR-RES and with SF-295 was > 100 µM (inactive) each time. Besides, the GI50 in the assay with SF-539, in the assay with SK-MEL-28, with SN12C, with SNB-19, in the assay on SW-620 and in the assay on TK-10 was > 100 µM (inactive) in each case.

`CC(C)(CCCCC(C)(C)[N+](C)(C)C)[N+](C)(C)C`: the GI50 in the assay on A549 was > 100 µM (inactive); in the assay with ACHN it was > 10 µM (inactive); in the assay with HCT-116, > 100 µM (inactive); in the assay on HCT-15 it was greater than 100 µM; with Hs-578T it was > 100 µM (inactive); in the assay on IGROV-1, > 100 µM (inactive). The GI50 with MCF7, in the assay on NCI-H522, in the assay on NCI/ADR-RES, in the assay on SF-539, in the assay on SK-MEL-28 and with SN12C was > 100 µM (inactive) throughout. For the same compound, the GI50 with SNB-19, with SW-620 and with TK-10 was > 100 µM (inactive) in each case.

`C[N+](C)(CCNc1ccc(NCC[N+](C)(C)Cc2ccc([N+](=O)[O-])cc2)c2c1C(=O)c1ccccc1C2=O)Cc1ccc([N+](=O)[O-])cc1`: the GI50 was > 100 µM (inactive) in the assay with A549; > 100 µM (inactive) in the assay on ACHN; > 100 µM (inactive) in the assay on CAKI-1; > 100 µM (inactive) in the assay on HCT-116; greater than 100 µM with HCT-15; > 100 µM (inactive) with HOP-92. Besides, the GI50 in the assay with Hs-578T, with IGROV-1, in the assay on KM12, in the assay with MCF7, in the assay on NCI-H522 and with NCI/ADR-RES was > 100 µM (inactive) each time. Moreover, the GI50 in the assay on SF-295, in the assay on SF-539, with SN12C, with SNB-19, in the assay with SW-620 and with TK-10 was > 100 µM (inactive) throughout.
